pEC50: −log10 of the molar value. Where a name gives a salt, the structure may show the parent alone.
Target: T1, hNPRA (Homo sapiens, UniProt P16066)
T1 construct: expressed in transfected cells
T1 sequence (P16066 33-1061): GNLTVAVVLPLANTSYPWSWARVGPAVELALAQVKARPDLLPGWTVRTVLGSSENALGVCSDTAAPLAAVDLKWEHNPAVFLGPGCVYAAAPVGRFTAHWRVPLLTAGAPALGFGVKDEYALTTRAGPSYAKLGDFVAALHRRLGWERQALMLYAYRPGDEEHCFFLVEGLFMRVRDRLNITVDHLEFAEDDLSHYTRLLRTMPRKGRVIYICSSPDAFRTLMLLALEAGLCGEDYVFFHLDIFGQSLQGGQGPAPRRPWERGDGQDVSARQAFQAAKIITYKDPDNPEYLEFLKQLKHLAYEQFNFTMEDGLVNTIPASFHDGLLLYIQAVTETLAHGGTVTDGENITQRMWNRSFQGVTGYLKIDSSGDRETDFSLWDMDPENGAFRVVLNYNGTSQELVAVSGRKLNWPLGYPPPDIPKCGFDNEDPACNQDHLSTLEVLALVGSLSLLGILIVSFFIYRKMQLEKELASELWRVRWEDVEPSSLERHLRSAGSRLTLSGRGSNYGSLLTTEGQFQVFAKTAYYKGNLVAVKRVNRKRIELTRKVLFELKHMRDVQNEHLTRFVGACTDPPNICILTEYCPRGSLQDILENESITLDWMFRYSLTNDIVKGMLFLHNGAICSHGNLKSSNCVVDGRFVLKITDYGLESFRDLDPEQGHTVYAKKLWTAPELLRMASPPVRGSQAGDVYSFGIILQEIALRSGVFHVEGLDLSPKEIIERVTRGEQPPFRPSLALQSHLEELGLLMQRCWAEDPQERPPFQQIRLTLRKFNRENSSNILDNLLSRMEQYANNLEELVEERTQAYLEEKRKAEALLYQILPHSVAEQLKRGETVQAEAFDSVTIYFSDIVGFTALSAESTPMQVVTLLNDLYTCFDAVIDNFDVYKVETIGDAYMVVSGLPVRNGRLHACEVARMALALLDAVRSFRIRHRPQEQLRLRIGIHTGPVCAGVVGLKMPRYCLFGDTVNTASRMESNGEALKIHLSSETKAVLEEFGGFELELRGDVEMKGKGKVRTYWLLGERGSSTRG
Test: NPRA Functional Cell Assay (cGMP HTRF, NPRA HEK JumpIn stable cells)
Assay type: cell-based
Settings: cGMP production, 1 hour at 37° C., 10-point dose response
Summary of the method: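 cGMP HTRF read-out after 1 hour compound treatment at 37° C. of human NPRA-expressing HEK JumpIn cells, 1500 cells/well, in buffer with phosphodiesterase inhibitors IBMX and RO20 (100 uM each). Signal converted to [cGMP] by calibration curve; EC50s fitted by 4-parameter logistic; 50 nM h-ANP as positive response.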

pEC50 | Structure (SMILES)
6.20 | CC(C)(C)[C@H]1CCc2nc3sc(C(=O)N[C@H](CCN4CCC(C(=O)O)CC4)c4cccc(C(=O)NC5CNC5)c4)nc3cc2C1 (racemic) [Example 122, 1-[rac-(3R)-3-[3-(azetidin-1-ium-3-ylcarbamoyl)phenyl]-3-[rac-(7S)-7-tert-butyl-5,6,7,8-tetrahydrothiazolo [5,4-b]quinoline-2-carbonyl]amino]propyl] piperidine-4-carboxylic acid; 2,2,2-trifluoroacetate]
6.18 | CN(C)CC[C@@H](NC(=O)c1nc2cc3c(nc2s1)CC[C@H](C(C)(C)C)C3)c1ccc(-c2ccc(=O)[nH]c2)cc1 (racemic) [Example 76, rac-(7S)-7-tert-butyl-N-[rac-(1R)-3-(dimethylamino)-1-[4-(6-oxo-1H-pyridin-3-yl)phenyl]propyl]-5,6,7,8-tetrahydrothiazolo[5,4-b]quinoline-2-carboxamide]
6.61 | CN(C)CC1(O)CCN(CC[C@@H](NC(=O)c2nc3cc4c(nc3s2)CC[C@H](C(C)(C)C)C4)c2ccc(-c3cnc(O)c(F)c3)cc2)CC1 (racemic) [Example 200, rac-(7S)-7-tert-butyl-N-[rac-(1R)-3-[4-[(dimethylamino)methyl]-4-hydroxy-piperidin-1-ium-1-yl]-1-[4-(5-fluoro-6-hydroxy-3-pyridyl)phenyl]propyl]-5,6,7,8-tetrahydrothiazolo[5,4-b]quinoline-2-carboxamide; formate]
5.99 | CC(C)(C)[C@H]1CCc2nc3sc(C(=O)N[C@H](CCN4CCC(O)CC4)c4ccc(-c5cnoc5)cc4)nc3cc2C1 (racemic) [Example 176, rac-(7S)-7-tert-butyl-N-[rac-(1R)-3-(4-hydroxypiperidin-1-ium-1-yl)-1-(4-isoxazol-4-ylphenyl)propyl]-5,6,7,8-tetrahydrothiazolo[5,4-b]quinoline-2-carboxamide; 2,2,2-trifluoroacetate]
6.20 | COC(=O)CC1CCN(CC[C@@H](NC(=O)c2nc3cc4c(nc3s2)CC[C@H](C(C)(C)C)C4)c2cccc(C(=O)NC3CN(C)C3)c2)CC1 (racemic) [Example 110, methyl 2-[1-[rac-(3R)-3-[3-{(1-methylazetidin-1-ium-3-yl)carbamoyl]phenyl]-3-[rac-(7S)-7-tert-butyl-5,6,7,8-tetrahydrothiazolo[5,4-b]quinoline-2-carbonyl]amino]propyl]-4-piperidyl]acetate; 2,2,2-trifluoroacetate]
5.89 | CC(C)(C)[C@H]1CCc2nc3sc(C(=O)N[C@H](CCN4CCC5OCCCC5C4)c4ccc(-c5cnc(O)c(F)c5)cc4)nc3cc2C1 (mixture of isomers) [Example 204, rac-(7S)-7-tert-butyl-N-[rac-(1R)-3-(3,4,4a,5,6,7,8,8a-octahydro-2H-pyrano[3,2-c]pyridin-6-ium-6-yl)-1-[4-(5-fluoro-6-hydroxy-3-pyridyl)phenyl]propyl]-5,6,7,8-tetrahydrothiazolo[5,4-b]quinoline-2-carboxamide; formate]
6.06 | CC(C)(C)[C@H]1CCc2nc3sc(C(=O)N[C@H](CCN4CCCCC4)c4ccc(-c5csc(C(=O)O)c5)cc4)cc3cc2C1 (racemic) [Example 6, ammonium;4-[4-[rac-(1R)-3-(1-piperidyl)-1-[rac-(6S)-6-tert-butyl-5,6,7,8-tetrahydrothieno[2,3-b]quinoline-2-carbonyl]amino]propyl] phenyl]thiophene-2-carboxylate]
6.02 | Cc1n[nH]c(C)c1-c1ccc([C@@H](CCN2CCC(O)CC2)NC(=O)c2nc3cc4c(nc3s2)CC[C@H](C(C)(C)C)C4)cc1 (racemic) [Example 173, rac-(7S)-7-tert-butyl-N-[rac-(1R)-1-[4-(3,5-dimethyl-1H-pyrazol-4-yl)phenyl]-3-(4-hydroxy-1-piperidyl)propyl]-5,6,7,8-tetrahydrothiazolo[5,4-b]quinoline-2-carboxamide]

Reference: US12440496B2, “Natriuretic peptide receptor a agonists useful for the treatment of cardiometabolic diseases, kidney disease and diabetes” (Merck Sharp & Dohme LLC, priority 2019, dated 2025)
